Results: patent US20250074919A1, “Heteroaryl compounds as inhibitors of irak4, compositions and applications thereof” (Accro Bioscience (HK) Limited, priority 2021, published 2025)
Where two headings read alike, the source gives them in different places.

Molecular target: IRAK4 (Homo sapiens (Human), UniProt Q9NWZ3)
Assay: Screening the compounds against IRAK4 with ATP (Caliper, FAM-labeled peptide)
Assay type: biochemical
Conditions: for IC50: read-out: IC50 (nM) (10 μM ATP); for activity, times better than that of the positive control compound CA4948: IRAK4 kinase inhibition relative to CA4948
Method: Prepare Ix kinase base buffer and stop buffer for testing kinases: (1) base buffer: 50 mM HEPES (pH 7.5), 0.0015% Brij-35; (2) stop buffer: 100 mM HEPES (pH 7.5), 0.015% Brij-35, 0.2% Coating Reagent #3, 50 mM EDTA. Then prepare compounds for testing: Dilute the compound to 50× of the final desired highest inhibitor concentration in reaction by 100% DMSO. Transfer 100 μL of this compound dilution to a well in a 96-well plate (source plate).
Serially dilute the compounds by 3-fold for a total of 10 points. Transfer 10 μL of the compound from the source plate to a new 96-well plate (intermediate plate) and add 90 μL of Ix kinase buffer. Shake the mixture on the intermediate plate for 10 min. Transfer 5 μL of each well from the 96-well intermediate plate to a 384-well plate in duplicates. Add 10 μL of 2.5× enzyme solution to each well of the 384-well assay plate and incubate at room temperature for 10 min. Add 10 μL, of 2.5×FAM-labeled peptide and ATP solution and incubate at 28° C. for a period of time. Finally stop the reaction by adding 30 μL of stop buffer and collect data on Caliper to obtain the IC50.

Chain of IRAK4 (Q9NWZ3 whole entry): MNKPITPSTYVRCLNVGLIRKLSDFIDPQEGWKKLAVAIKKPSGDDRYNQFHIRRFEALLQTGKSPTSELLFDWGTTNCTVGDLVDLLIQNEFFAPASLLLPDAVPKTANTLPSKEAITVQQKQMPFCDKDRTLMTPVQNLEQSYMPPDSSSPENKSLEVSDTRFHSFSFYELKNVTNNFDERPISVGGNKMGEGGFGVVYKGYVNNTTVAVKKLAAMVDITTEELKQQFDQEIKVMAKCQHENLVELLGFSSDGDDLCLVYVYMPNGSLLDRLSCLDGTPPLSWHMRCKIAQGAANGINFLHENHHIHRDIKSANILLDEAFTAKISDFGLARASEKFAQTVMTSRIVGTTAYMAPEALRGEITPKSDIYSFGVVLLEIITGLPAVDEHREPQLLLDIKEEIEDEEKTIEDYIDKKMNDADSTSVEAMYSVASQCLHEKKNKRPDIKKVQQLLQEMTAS

Row | IC50 (IRAK4 kinase, 10 μM ATP) [nM] | activity, times better than that of the positive control compound CA4948 | Compound | IC50 [nM]
1 | 31 | – | Cn1cc(-c2cccc(NC(=O)c3cc4c(nc3N3CCN(CCO)CC3)OC(C)(C)C4)n2)cn1 [Compound B3, 6-(4-(2-Hydroxyethyl)piperazin-1-yl)-2,2-dimethyl-N-(6-(1-methyl-1H-pyrazol-4-yl)pyridin-2-yl)-2,3-dihydrofuro[2,3-b]pyridine-5-carboxamide] | –
2 | 7.5 | – | Cn1cc(-c2cccc(NC(=O)c3cc4c(nc3N3CCN(C5CC5)CC3)OC(C)(C)C4)n2)cn1 [Compound B4, 6-(4-Cyclopropylpiperazin-1-yl)-2,2-dimethyl-N-(6-(1-methyl-1H-pyrazol-4-yl)pyridin-2-yl)-2,3-dihydrofuro[2,3-b]pyridine-5-carboxamide] | –
3 | 5.9 | – | Cn1cc(-c2cccc(NC(=O)c3cc4c(nc3N3CCC5(CCO5)CC3)OC(C)(C)C4)n2)cn1 [Compound B6, 2,2-Dimethyl-N-(6-(1-methyl-1H-pyrazol-4-yl)pyridin-2-yl)-6-(1-oxa-7-azaspiro[3.5]nonan-7-yl)-2,3-dihydrofuro[2,3-b]pyridine-5-carboxamide] | –
4 | 11 | – | Cn1cc(-c2cccc(NC(=O)c3cc4c(nc3N3CCC(C)(O)CC3)OC(C)(C)C4)n2)cn1 [Compound B7, 6-(4-Hydroxy-4-methylpiperidin-1-yl)-2,2-dimethyl-N-(6-(1-methyl-1H-pyrazol-4-yl)pyridin-2-yl)-2,3-dihydrofuro[2,3-b]pyridine-5-carboxamide] | –
5 | 224 | – | Cn1cc(-c2cccc(NC(=O)c3cc4c(nc3N3CCNC5(CC5)C3)OC(C)(C)C4)n2)cn1 [Compound B8, 2,2-Dimethyl-N-(6-(1-methyl-1H-pyrazol-4-yl)pyridin-2-yl)-6-(4,7-diazaspiro[2.5]octan-7-yl)-2,3-dihydrofuro[2,3-b]pyridine-5-carboxamide] | –
6 | 69 | – | CC1(C)Cc2cc(C(=O)Nc3cccn([C@H]4C[C@H]4F)c3=O)c(N3CCC(O)CC3)nc2O1 [Compound B9, N-(1-((1S,2R)-2-Fluorocyclopropyl)-2-oxo-1,2-dihydropyridin-3-yl)-6-(4-hydroxypiperidin-1-yl)-2,2-dimethyl-2,3-dihydrofuro[2,3-b]pyridine-5-carboxamide] | –
7 | – | – | CC1(C)Cc2cc(C(=O)Nc3cccn(C4CC4)c3=O)c(N3CCC(O)CC3)nc2O1 [Compound B10, N-(1-Cyclopropyl-2-oxo-1,2-dihydropyridin-3-yl)-6-(4-hydroxypiperidin-1-yl)-2,2-dimethyl-2,3-dihydrofuro[2,3-b]pyridine-5-carboxamide] | 479
8 | 50 | – | COc1nc2c(cc1C(=O)Nc1cccc(-c3cnn(C)c3)n1)CC(C)(C)O2 [Compound B11, 6-Methoxy-2,2-dimethyl-N-(6-(1-methyl-1H-pyrazol-4-yl)pyridin-2-yl)-2,3-dihydrofuro[2,3-b]pyridine-5-carboxamide] | –
9 | 9.2 | – | CCOc1nc2c(cc1C(=O)Nc1cccc(-c3cnn(C)c3)n1)CC(C)(C)O2 [Compound B12, 6-Ethoxy-2,2-dimethyl-N-(6-(1-methyl-1H-pyrazol-4-yl)pyridin-2-yl)-2,3-dihydrofuro[2,3-b]pyridine-5-carboxamide] | –
10 | 6.2 | – | CC(C)Oc1nc2c(cc1C(=O)Nc1cccc(-c3cnn(C)c3)n1)CC(C)(C)O2 [Compound B13, 6-Isopropoxy-2,2-dimethyl-N-(6-(1-methyl-1H-pyrazol-4-yl)pyridin-2-yl)-2,3-dihydrofuro[2,3-b]pyridine-5-carboxamide] | –
11 | 5.6 | – | Cn1cc(-c2cccc(NC(=O)c3cc4c(nc3OC3CCCC3)OC(C)(C)C4)n2)cn1 [Compound B15, 6-(Cyclopentyloxy)-2,2-dimethyl-N-(6-(1-methyl-1H-pyrazol-4-yl)pyridin-2-yl)-2,3-dihydrofuro[2,3-b]pyridine-5-carboxamide] | –
12 | 11 | – | Cn1cc(-c2cccc(NC(=O)c3cc4c(nc3OC3COC3)OC(C)(C)C4)n2)cn1 [Compound B16, 2,2-Dimethyl-N-(6-(1-methyl-1H-pyrazol-4-yl)pyridin-2-yl)-6-(oxetan-3-yloxy)-2,3-dihydrofuro[2,3-b]pyridine-5-carboxamide] | –
13 | 6.5 | – | Cn1cc(-c2cccc(NC(=O)c3cc4c(nc3O[C@H]3CCOC3)OC(C)(C)C4)n2)cn1 [Compound B17, (S)-2,2-Dimethyl-N-(6-(1-methyl-1H-pyrazol-4-yl)pyridin-2-yl)-6-((tetrahydrofuran-3-yl)oxy)-2,3-dihydrofuro[2,3-b]pyridine-5-carboxamide] | –
14 | 27 | – | Cn1cc(-c2cccc(NC(=O)c3cc4c(nc3OC(F)F)OC(C)(C)C4)n2)cn1 [Compound B20, 6-(Difluoromethoxy)-2,2-dimethyl-N-(6-(1-methyl-1H-pyrazol-4-yl)pyridin-2-yl)-2,3-dihydrofuro[2,3-b]pyridine-5-carboxamide] | –
15 | 75 | – | CN1CCC(Oc2nc3c(cc2C(=O)Nc2cccc(-c4cnn(C)c4)n2)CC(C)(C)O3)C1 (stereo not drawn) [Compound B21, 2,2-Dimethyl-N-(6-(1-methyl-1H-pyrazol-4-yl)pyridin-2-yl)-6-((1-methylpyrrolidin-3-yl)oxy)-2,3-dihydrofuro[2,3-b]pyridine-5-carboxamide] | –
16 | 354 | – | Cn1cc(-c2cccc(NC(=O)c3cc4c(nc3OC3CCNC3)OC(C)(C)C4)n2)cn1 (stereo not drawn) [Compound B22, 2,2-Dimethyl-N-(6-(1-methyl-1H-pyrazol-4-yl)pyridin-2-yl)-6-(pyrrolidin-3-yloxy)-2,3-dihydrofuro[2,3-b]pyridine-5-carboxamide] | –
17 | 11 | – | Cn1cc(-c2cccc(NC(=O)c3cc4c(nc3OC3CCOCC3)OC(C)(C)C4)n2)cn1 [Compound B23, 2,2-Dimethyl-N-(6-(1-methyl-1H-pyrazol-4-yl)pyridin-2-yl)-6-((tetrahydro-2H-pyran-4-yl)oxy)-2,3-dihydrofuro[2,3-b]pyridine-5-carboxamide] | –
18 | 11 | – | Cn1cc(-c2cccc(NC(=O)c3cc4c(nc3OCC3CC3)OC(C)(C)C4)n2)cn1 [Compound B24, 6-(Cyclopropylmethoxy)-2,2-dimethyl-N-(6-(1-methyl-1H-pyrazol-4-yl)pyridin-2-yl)-2,3-dihydrofuro[2,3-b]pyridine-5-carboxamide] | –
19 | 13 | – | CC(Oc1nc2c(cc1C(=O)Nc1cccc(-c3cnn(C)c3)n1)CC(C)(C)O2)C1CC1 (stereo not drawn) [Compound B26, 6-(1-Cyclopropylethoxy)-2,2-dimethyl-N-(6-(1-methyl-1H-pyrazol-4-yl)pyridin-2-yl)-2,3-dihydrofuro[2,3-b]pyridine-5-carboxamide] | –
20 | 248 | – | Cn1cc(-c2cccc(NC(=O)c3cc4c(nc3OC3CNC(=O)OC3)OC(C)(C)C4)n2)cn1 (stereo not drawn) [Compound B28, 2,2-Dimethyl-N-(6-(1-methyl-1H-pyrazol-4-yl)pyridin-2-yl)-6-((2-oxo-1,3-oxazinan-5-yl)oxy)-2,3-dihydrofuro[2,3-b]pyridine-5-carboxamide] | –
21 | 6.2 | more than 10 times | Cn1cc(-c2cccc(NC(=O)c3cc4c(nc3OC3CC3)OC(C)(C)C4)n2)cn1 [Compound B29, 6-Cyclopropoxy-2,2-dimethyl-N-(6-(1-methyl-1H-pyrazol-4-yl)pyridin-2-yl)-2,3-dihydrofuro[2,3-b]pyridine-5-carboxamide] | –
22 | 170 | – | Cn1cc(-c2cccc(NC(=O)c3cc4c(nc3OC3CNC3)OC(C)(C)C4)n2)cn1 [Compound B30, 6-(Azetidin-3-yloxy)-2,2-dimethyl-N-(6-(1-methyl-1H-pyrazol-4-yl)pyridin-2-yl)-2,3-dihydrofuro[2,3-b]pyridine-5-carboxamide] | –
23 | 176 | – | CN1CC(Oc2nc3c(cc2C(=O)Nc2cccc(-c4cnn(C)c4)n2)CC(C)(C)O3)C1 [Compound B31, 2,2-Dimethyl-N-(6-(1-methyl-1H-pyrazol-4-yl)pyridin-2-yl)-6-((1-methylazetidin-3-yl)oxy)-2,3-dihydrofuro[2,3-b]pyridine-5-carboxamide] | –
24 | 8.9 | more than 10 times | Cn1cc(-c2cccc(NC(=O)c3cc4c(nc3O[C@@H]3CCOC3)OC(C)(C)C4)n2)cn1 [Compound B33, (R)-2,2-Dimethyl-N-(6-(1-methyl-1H-pyrazol-4-yl)pyridin-2-yl)-6-((tetrahydrofuran-3-yl)oxy)-2,3-dihydrofuro[2,3-b]pyridine-5-carboxamide] | –
25 | 243 | – | Cn1cc(-c2cccc(NC(=O)c3cc4c(nc3O)OC(C)(C)C4)n2)cn1 [Compound B34] | –

Row | Compound | IC50 (IRAK4 kinase, 10 μM ATP) [nM] | activity, times better than that of the positive control compound CA4948 | IC50 [nM]
26 | Cn1cc(-c2cccc(NC(=O)c3cc4c(nc3OC3CCC3)OC(C)(C)C4)n2)cn1 [Compound B14, 6-Cyclobutoxy-2,2-dimethyl-N-(6-(1-methyl-1H-pyrazol-4-yl)pyridin-2-yl)-2,3-dihydrofuro[2,3-b]pyridine-5-carboxamide] | 6.1 | – | –
27 | Cn1cc(-c2cccc(NC(=O)c3cc4c(nc3OC3CC(C)(O)C3)OC(C)(C)C4)n2)cn1 (stereo not drawn) [Compound B35, 6-(3-Hydroxy-3-methylcyclobutoxy)-2,2-dimethyl-N-(6-(1-methyl-1H-pyrazol-4-yl)pyridin-2-yl)-2,3-dihydrofuro[2,3-b]pyridine-5-carboxamide] | 6.8 | more than 10 times | –
